Source: PubChem BioAssay AID179 (DTP/NCI, 2004)
The source made the active and inactive calls.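 Rule for the calls: active = compounds giving half or more protection of infected cells from virus-caused growth loss, again on retest; inactive = the rest.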 Where a SMILES comes first, the peptide text is derived from it.

Test system: CEM cells HIV-1 protection, formazan growth assay
Experiment: NCI AIDS Antiviral Assay
Settings: for IC50: measured here: growth of uninfected CEM cells
In short: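 Screen of anti-HIV-1 activity in human CEM cells using a formazan-based growth measurement at five drug concentrations. Hits with 50% or greater protection were repeated, and confirmation required reproducible complete protection.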

| SMILES | EC50 [µM] | IC50 [µM] | outcome |
| --- | --- | --- | --- |
| CC(=O)/C(=C/c1ccc([N+](=O)[O-])cc1)C(=O)c1ccccc1 | > 87.1 | 16.6 | – |
| CCn1c(=S)[nH]c2sc3c(c2c1=O)CCCCC3 | > 107 | 21.9 | – |
| COCc1cc2c(cc1/C(=C/[N+](=O)[O-])CS(=O)(=O)c1ccccc1)OCO2 | > 200 | 102 | – |
| CN(C)c1nc(NC23CC4CC(CC(C4)C2)C3)nc(N(C)C)n1 | > 200 | 5.01 | – |
| O=C1CCC2(CC1CCS(=O)c1ccccc1)OCCO2 (stereo not drawn) | > 200 | > 200 | – |
| CCOC(=O)CCC(=O)C1c2cccc(O)c2C(=O)c2c(O)cc(C)cc21 (stereo not drawn) | > 37.2 | 1.35 | – |
| c1ccc(C2OC3(CCC[C@H]4C[C@H]43)O[C@H]2c2ccccc2)cc1 (stereo partly drawn) | – | – | inactive |
| COc1cc(-c2oc3c(OC)c(OC)c(OC)c(OC)c3c(=O)c2OC)cc(OC)c1OC | > 200 | 17.8 | – |
| Oc1c(N2CCOCC2)cc(-c2cc(N3CCOCC3)c(O)c3ccccc23)c2ccccc12 | > 26.3 | 3.63 | – |
| CN(C)C(=O)C1(c2ccc(Cl)cc2)CCN(CCCC(=O)c2ccc(F)cc2)CC1 | > 79.4 | 69.2 | – |
| CN(C)CC(C)(C)/C(=N\Nc1ccccc1)c1ccccc1 | – | – | inactive |
| CP(C)CC[PH+](CC[PH+](C)C)CC[PH+](C)C.[C-]#[O+].[C-]#[O+].[W] | – | – | inactive |
| CN(O)C(=O)Cc1ccccc1 | > 15.1 | > 15.1 | – |
| OC1CN2CCS[C@H]2C(O)C1O (stereo partly drawn) | > 200 | > 200 | – |
| N#CC1=C(N)Oc2c(ccc3cccnc23)C1c1ccccc1 (stereo not drawn) | > 120 | 1.7 | – |
| Cc1ccc(C(=O)CCC2C(=O)CC(C)(C)CC2=O)cc1 | > 91.2 | 64.6 | – |
| CC(=O)c1c(O)cc(O)c(-c2c(C)cc(O)c3c2C(=O)c2cccc(O)c2C3=O)c1O | > 200 | 25.7 | – |
| CCCC[C@@H]1CCN2C[C@@H](O)[C@@H](O)[C@H]2[C@@H]1O | > 200 | > 200 | – |
| CC(C)(C)c1ccc(OC2CCO2)cc1 (stereo not drawn) | > 34.7 | > 34.7 | – |
| Cc1cc(N(CCC#N)CCC#N)ccc1/C=C\C(=O)Nc1ccccc1 | > 692 | > 692 | – |
| NC(=O)C(=CNC(=S)c1ccncc1)C(N)=O | > 200 | > 200 | – |
| C=C1C(=O)O[C@H]2C1C(OC(=O)/C(C)=C/C)C(OC(C)=O)[C@@](C)(O)C1C2C(C)=C[C@H]1OC(C)=O (stereo partly drawn) | > 141 | 6.17 | – |

| SMILES | EC50 [µM] | IC50 [µM] | outcome |
| --- | --- | --- | --- |
| Cc1c(C)c2cc3c(cc2oc1=O)OCC3 | > 83.2 | 55 | – |
| C=Cc1c(C#N)nc(C)c(C)c1-c1ccc(OC)c(OC)c1OCc1ccccc1 | > 200 | 14.1 | – |
| C=CCOC(C)(C)C1=CCC(C)CC1 (stereo not drawn) | > 100 | > 100 | – |
| O=C(O)N1CCc2c(sc3ccccc23)C1 | > 95.5 | > 95.5 | – |
| CC1NCc2c1[nH]cnc2=S (stereo not drawn) | > 257 | > 257 | – |
| O=C(CNC(=O)OCc1ccccc1)NCCCCC(NC(=O)OCc1ccccc1)C(=O)NC(CCCCNC(=O)CNC(=O)OCc1ccccc1)C(=O)OCc1ccccc1 (stereo not drawn) | > 100 | > 100 | – |
| O=C1CSC(c2cccc([N+](=O)[O-])c2)N1c1ccc(-n2c(-c3ccccc3)nc3ccccc3c2=O)cc1 (stereo not drawn) | > 200 | > 200 | – |
| CC(C)=CC1CCc2ccccc2N1S(=O)(=O)c1ccc(C)cc1 (stereo not drawn) | > 25.1 | 1.32 | – |
| O=c1[nH][nH]c(=O)n1Cc1cccc(Cn2c(=O)[nH][nH]c2=O)c1 | > 200 | > 200 | – |
| O=C(/C=C/c1ccccc1)c1ccc(Sc2ccccc2)cc1 | > 2 | 0.107 | – |
| C=CCNc1nc2c(N)ncnc2s1 | > 200 | > 200 | – |
| NC(=S)N/N=C(\CC1OC(=O)c2ccccc21)c1ccc(Cl)cc1 (stereo not drawn) | > 83.2 | 7.24 | – |
| Cc1cc(C#N)c(Nc2ccccc2[N+](=O)[O-])s1 | > 200 | 42.7 | – |
| NC(N)=NS(=O)(=O)c1ccc(Nc2c3ccccc3nc3c(C(=O)Nc4ccc(S(N)(=O)=O)cc4)cccc23)cc1 | 8.32 | 31.6 | – |
| Cc1cc2c(cc1C)[n+](=O)c(C(=O)C/C(=N/OCCCc1ccccc1)C(=O)Nc1cc(Cl)ccc1Cl)c(C)n2[O-] | > 6.31 | > 6.31 | – |
| C1=C2/CC[C@H](Sc3ccccc3)[C@H]2C2(CCCCC/1)OCCO2 | > 15.8 | > 15.8 | – |
| O=C(Oc1cccc2cccnc12)c1ccccc1 | > 200 | 33.9 | – |
| CC1=C(C)SC(=C2Sc3c(n(C)c(=O)n(C)c3=O)S2)S1 | 182 | > 200 | – |
| Cc1cc(C)c(C(=O)/C=C/c2ccccc2)c(C)c1 | > 28.8 | > 28.8 | – |
| CC(C)=CC1c2[nH]c3ccccc3c2CC(C(=O)O)N1C(=O)OC(C)(C)C(Cl)(Cl)Cl (stereo not drawn) | – | – | inactive |
| O=C(O)c1cc(-c2ccccc2O)nc2ccccc12 | > 355 | 191 | – |
| COC(=O)CCCC=C(c1cc(F)c(OC)c(C(=O)OC)c1)c1cc(F)c(OC)c(C(=O)OC)c1 | 1.7 | 64.6 | – |

| SMILES | EC50 [µM] | IC50 [µM] | outcome |
| --- | --- | --- | --- |
| O=C(Cc1nc2sc3c(c2c(=O)[nH]1)CCCC3)Nc1ccccc1 | – | – | inactive |
| CC1C2CC(C(S(=O)(=O)N3CCOCC3)/C2=N\O)C1(C)C (stereo not drawn) | > 200 | 195 | – |
| O=C(O)c1cc2cc(Br)ccc2cc1O | > 200 | 85.1 | – |
| Cc1nc2c3c(ccc2[nH]c1=O)C(=O)c1ccccc1C3=O | – | – | inactive |
| N#CC(C#N)SCc1ccccc1 | – | – | inactive |
| COc1ccc(C(C(N)=O)N2CCCC2)cc1 (stereo not drawn) | > 200 | > 200 | – |
| Cc1cn(C2CC(NC(=O)NO[Si](C)(C)C(C)(C)C)C(CO[Si](C)(C)C(C)(C)C)O2)c(=O)[nH]c1=O (stereo not drawn) | > 200 | 95.5 | – |
| O=C1c2cccc3c([N+](=O)[O-])ccc(c23)C(=O)N1NCCO | – | – | inactive |
| NNC(=O)CC(=O)Nc1ccccc1Cl | > 200 | > 200 | – |
| COC(=O)C(C)NC1=C(Cl)C(=O)C(NC(C)C(=O)OC)=C(Cl)C1=O (stereo not drawn) | – | – | inactive |
| O=C1CC(C(OCc2ccccc2)C(OCc2ccccc2)C(COCc2ccccc2)OCc2ccccc2)CC(=O)N1 (stereo not drawn) | > 200 | > 200 | – |
| O=C(/C=C\c1ccc(O)c(O)c1)OC1C(O)CC(OC(=O)/C=C/c2ccc(O)c(O)c2)(C(=O)O)CC1O (stereo not drawn) | > 200 | 30.2 | – |
| Nc1ccc2c(c1)CN1C(=O)c3ccccc3C1=N2 | > 15.1 | 2.95 | – |
| CN(C)c1cc(CN[C@@H](Cc2cn(C(c3ccccc3)(c3ccccc3)c3ccccc3)cn2)C(=O)O)nc(CN[C@@H](Cc2cn(C(c3ccccc3)(c3ccccc3)c3ccccc3)cn2)C(=O)O)c1 | > 100 | 19.5 | – |
| CC(=O)N/N=C1\NN(C(C)=O)C2(S1)C(=O)Nc1ccccc12 (stereo not drawn) | > 200 | > 200 | – |
| COC(=O)N(CCc1ccccc1)C(C)(C)C#N | > 29.5 | > 29.5 | – |
| CC(=O)OCc1cc(OC(C)=O)c2cc3c(OC(C)=O)cccc3c(OC(C)=O)c2c1 | > 200 | 28.2 | – |
| c1ccc2c(c1)[nH]c1c3ccccc3sc21 | > 200 | > 200 | – |
| O=c1cc(NNc2cccc3ccccc23)[nH]c(=O)[nH]1 | > 200 | 4.9 | – |
| Cc1cc(O)c(C=O)c2c1C(=O)Oc1c(COCO/C=C/C(=O)O)c(O)c(C(=O)O)c(C)c1O2 | 52.5 | 61.7 | – |
| CCOC(=O)c1cn(C)c(=S)n2c1nc1ccccc12 | > 200 | > 200 | – |
| CN(C)CCNc1ncnc2nc(-c3ccc4ccccc4c3)[nH]c12 | > 200 | > 200 | – |

| SMILES | EC50 [µM] | IC50 [µM] | outcome |
| --- | --- | --- | --- |
| CCNC(=O)Nc1ccc(Cl)cn1 | > 200 | 132 | – |
| CCC(C)C(NC(=O)C(CC(C)C)NC(=O)CNC(=O)C(CC(N)=O)NC(=O)C(CC(=O)O)NC(=O)C(N)CC(C)C)C(=O)NC(CC(C)C)C(=O)NC(C)C(=O)NC(Cc1ccc(O)cc1)C(=O)O (stereo not drawn) (H-LDNGLILAY-OH; configuration not given here) | > 50.1 | > 50.1 | – |
| O=C(/C=C(\O)c1ccccc1)C(=O)NNc1ccc([N+](=O)[O-])cc1[N+](=O)[O-] | > 200 | 60.3 | – |
| Nc1nc(N)c(CCCCc2ccccc2)c(Cc2ccccc2)n1 | – | – | inactive |
| Oc1ccc2ccccc2c1OCc1nnc(CCCCCCCCc2nnc(COc3c(O)ccc4ccccc34)n2Nc2ccccc2)n1Nc1ccccc1 | > 2 | > 2 | – |
| CN(C)CCCN1c2ccccc2Sc2ccc(Cl)cc21 | > 200 | 10.2 | – |
| O=S(=O)(CC#CCO)c1ccc2ccccc2c1 | – | – | inactive |
| C=C(CCCC(C)OCOCCOC)[Si](C)(C)C (stereo not drawn) | > 95.5 | > 95.5 | – |
| C/C(=N\NC(N)=S)C(CN1CCCCC1)C(C1=C(O)c2ccccc2OC1)c1ccccc1 (stereo not drawn) | > 224 | 123 | – |
| O=C(/C(=C/c1cccc([N+](=O)[O-])c1)c1ccccc1)c1ccccc1 | > 6.03 | 4.07 | – |
| CCSc1nc2cccc([N+](=O)[O-])c2n1CC | – | – | inactive |
| O=C(O)CCSCCCCCCCCCCCCSCCC(=O)O | > 91.2 | > 91.2 | – |
| Fc1sc2c(c1F)C1CCC2C1 (stereo not drawn) | > 200 | 115 | – |
| CCSc1cc(=O)n(C)c(=O)n1C | – | – | inactive |
| CC[N+](C)(C)C1=C([O-])C(F)(F)C1=O | > 200 | > 200 | – |
| Nc1nnc(-c2ccccc2O)o1 | > 200 | 110 | – |
| Clc1cc2c(c3ncccc13)OCN(Cc1ccccc1)C2 | > 200 | 1.02 | – |
| CCCCCCCCCC=C(c1cc(Br)c(O)c(C(=O)O)c1)c1cc(Br)c(O)c(C(=O)O)c1 | 141 | 191 | – |
| Cc1cccc2c1CC1(C2)Cc2c(C)cccc2C1=O (stereo not drawn) | > 200 | 37.2 | – |
| COc1cc(COC(=O)N[C@H](C(=O)O)C(C)(C)C)c([N+](=O)[O-])cc1OC | > 676 | > 676 | – |
| Nn1ccc(=O)c2c1-c1ccccc1C(c1ccccc1)c1ccccc1-2 (stereo not drawn) | > 200 | 24 | – |
| CNc1ncnc2c1nc(NC1CCCC1)n2C1OC(CO)C(O)C1O (stereo not drawn) | > 200 | > 200 | – |
